Results on five molecules are retold here after ChEMBL document CHEMBL2040776, “Docking, synthesis and pharmacological activity of novel urea-derivatives designed as p38 MAPK inhibitors” (Eur J Med Chem, 2012).

Active and inactive are the calls of the source. The calls are words filed in the database; no cut-off is given here.

In assay [1] the test system is Rattus norvegicus. The assay can be described thus: Antihypernociceptive activity in Wistar rat assessed as inhibition of capsaicin-induced thermal hypernociception by measuring paw withdrawal latency at 100 umol/kg, po administered 1 hr before capsaicin challenge measured after 10 mins. It counts as functional, organism-based.
The nature of assay [2]: Cytotoxicity against BALB/c mouse peritoneal macrophages after 20 hrs by MTT assay. Conditions: Peritoneal macrophage cell. It counts as cell-based.
Assay [3] in a line: Antiinflammatory activity in BALB/c mouse peritoneal macrophages assessed as inhibition of LPS-induced TNFalpha production treated 1 hr before LPS challenge measured after 24 hrs by ELISA. It counts as functional, cell-based. The following applies: Peritoneal macrophage cell.
The nature of assay [4]: Antiinflammatory activity in BALB/c mouse peritoneal macrophages assessed as inhibition of LPS-induced TNFalpha production at 100 uM treated 1 hr before LPS challenge measured after 24 hrs by ELISA. Type of assay: functional. Conditions: Peritoneal macrophage cell.
Another assay concerns Mus musculus. The experiment in a line: Antihypernociceptive activity in po dosed BALB/c mouse methylated bovine serum albumin-induced arthritis model assessed as paw withdrawal latency administered 30 mins before mBSA challenge followed by second dose after 7 hrs by electronic Von Frey method. Type of assay: functional, organism-based.
Assay [5] deals with Rattus norvegicus. The experiment in a line: Antiinflammatory activity in Wistar rat assessed as inhibition of carrageenan-induced paw oedema at 100 umol/kg, po after 1 hr. Type of assay: functional, organism-based.
The subject of assay [6] is Rattus norvegicus. The experiment in a line: Antiinflammatory activity in Wistar rat assessed as inhibition of carrageenan-induced paw oedema at 100 umol/kg, po after 3 hrs. Type of assay: functional, organism-based.
The target of a further assay is MAP kinase p38 (Mus musculus, UniProt P47811+O08911+Q9WUI1+Q9Z1B7). The assay can be described thus: Inhibition of LPS-induced p38 MAPK activation in BALB/c mouse peritoneal macrophages.

As to `CCOC(=O)c1cc2cc3c(cc2nc1NC(=O)Nc1ccc([N+](=O)[O-])cc1)OCO3`, in the assay with Rattus norvegicus [1], the inhibition entry is “Active”.

For `CCOC(=O)c1cc2cc3c(cc2nc1NC(=O)Nc1ccc(Br)cc1)OCO3`, the inhibition entry in the assay with Rattus norvegicus [1] is “Active”.

The molecule `CCOC(=O)c1cc2cc3c(cc2nc1NC(=O)Nc1ccccc1)OCO3` registered an IC50 in assay [2] of 42.7 µM.

On to `C[S+]([O-])c1ccc(-c2nc(-c3ccc(F)cc3)c(-c3ccncc3)[nH]2)cc1` (stereo not drawn) [SB-203580], for which the inhibition result in the assay with Rattus norvegicus [1] was “Active”. Besides, in assay [3], the IC50 is 0.22 µM.

With `CCOC(=O)c1cc2cc3c(cc2nc1NC(=O)NC1CCCCC1)OCO3`, the inhibition result in the assay with Rattus norvegicus [1], with Rattus norvegicus [5] and with Rattus norvegicus [6] was “Active” each time. The figures for the IC50 (in assay [2]; in assay [3]; at MAP kinase p38) were 46.7 µM, 55 µM and 14 µM, respectively. In addition, in assay [4], the inhibition at 100 µM turned out to be 50%. In addition, in the assay on Mus musculus, the Activity result is “Dose-dependent effect”.
